Results as given in patent publication US12435061B2 (priority 2020, dated 2025).
Values after ≈ are worked out from the molar mass of the structure shown. Values joined by “and” are separate entries in the source; they are usually repeats but may differ in a detail not shown here. Equal values may be shown once. Read-outs that look alike come from different tables or passages of the source.

Tests used:
[1] = target: T1, hTRPV3 (Homo sapiens (Human), UniProt Q8NET8); assay: hTRPV3 HAMA IC50 assay (Hamamatsu FDSS6000 calcium flux, TRex-293 cells)
Description: IC50s were calculated using CBIS from ChemInnovation (San Diego).

[2] = Metabolic Stability assay, rat liver microsomes; format: in vitro ADME; settings: for half-life at 1 μM: read-out: LM T1/2 (min) (rat)
In short: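 Test article at 1 μM starting concentration incubated with human or rat liver microsomes at 37 °C, with the reaction started by NADPH regeneration components. Aliquots were quenched in cold acetonitrile/MeOH/H2O at 0, 7, 15, 30 and 60 min and analysed by HPLC/MS/MS.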

[3] = Aqueous solubility assay in Normal Ringer Solution; settings: Normal Ringer Solution; for solubility at 40 min: saline or isotonic, kinetic from dmso stock; for Solubility Ringer (nM): room temperature
Description: Following vortex and incubation for a sufficient time (e.g. 40 minutes at room temperature), solutions were filtered, quenched with acetonitrile, and analyzed by Liquid Chromotography. Solubility Limits were determined by comparison to a standard curve.

[4] = target: T1, hTRPV3; assay: Whole-cell patch clamp, hTRPV3 Phase 1 / Phase 2 currents; format: cell-based
In short: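 Whole-cell recordings on induced TRPV3 cells replated on coverslips, held at −40 mV with 400 ms ramps from −120 to +100 mV every 5 s; currents read at −80 and +80 mV. Ringer's external solution; current activated by heating to ≥28 °C or 20 μM 2-APB.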

[5] = Phase 1 current, inward, whole-cell patch clamp, read-out: hTRPV3 Patch P1 Inwd
[6] = Phase 1 current, read-out: hTRPV3 (nM) (Phase 1)
[7] = read-out: hTRPV3 (nM) (Phase 1)
[8] = hTRPV3 HAMA IC50 (nM) (5 min), 5 min
[9] = Phase 2 current, inward, whole-cell patch clamp, read-out: hTRPV3 Patch P2 Inwd
[10] = Phase 2 current, read-out: hTRPV3 (nM) (Phase 2)
[11] = hTRPV3 HAMA IC50 (nM) (30 min), 30 min

T1 sequence (Q8NET8 whole entry): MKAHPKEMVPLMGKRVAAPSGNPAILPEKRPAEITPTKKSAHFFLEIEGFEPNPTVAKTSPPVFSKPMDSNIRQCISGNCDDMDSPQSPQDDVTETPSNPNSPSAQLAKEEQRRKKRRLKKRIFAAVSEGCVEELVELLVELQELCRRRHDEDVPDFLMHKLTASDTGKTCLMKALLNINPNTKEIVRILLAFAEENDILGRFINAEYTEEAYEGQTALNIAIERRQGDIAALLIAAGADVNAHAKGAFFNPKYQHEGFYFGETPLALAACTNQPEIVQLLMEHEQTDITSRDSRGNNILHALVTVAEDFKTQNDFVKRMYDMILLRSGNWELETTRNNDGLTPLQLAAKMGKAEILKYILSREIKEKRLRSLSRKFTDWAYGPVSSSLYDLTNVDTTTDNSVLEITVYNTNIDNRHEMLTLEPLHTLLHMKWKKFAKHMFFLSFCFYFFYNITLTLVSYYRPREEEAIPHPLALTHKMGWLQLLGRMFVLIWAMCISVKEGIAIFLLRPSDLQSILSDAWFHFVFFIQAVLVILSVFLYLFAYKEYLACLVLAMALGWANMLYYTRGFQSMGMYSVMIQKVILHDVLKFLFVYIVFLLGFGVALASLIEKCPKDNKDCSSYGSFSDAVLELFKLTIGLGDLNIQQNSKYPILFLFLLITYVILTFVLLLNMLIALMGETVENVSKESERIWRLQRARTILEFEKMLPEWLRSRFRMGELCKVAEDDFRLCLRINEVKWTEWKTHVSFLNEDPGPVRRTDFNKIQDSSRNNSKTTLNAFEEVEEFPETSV

Row | Compound | hTRPV3 HAMA IC50 (nM) (5 min) ([1]; 5 min) | half-life at 1 μM [2] | solubility at 40 min [3] | IC50 [4, 5] | IC50 [4, 6] | Solubility Ringer (nM) [3] | IC50 [4, 9] | IC50 [4, 10] | other results
1 | OCCOc1cc(-c2ccccc2)ccc1N1CC[C@H](Oc2ccc(C(F)(F)F)cn2)C1 [Compound 1-135, (S)-2-(4-(3-(5-(trifluoromethyl)pyridin-2-yloxy)pyrrolidin-1-yl)biphenyl-3-yloxy)ethanol] | no fit (5 min) | 69.7 min | 0.19 µM (≈ 0.0844 µg/mL) | 100 to 1000 nM | 765 nM | – | – | – | –
2 | Cc1ccccc1Oc1ccc(CO)c(N2CC[C@H](Oc3ncccc3Cl)C2)c1 [Compound 1-241, (S)-(2-(3-(3-chloropyridin-2-yloxy)pyrrolidin-1-yl)-4-(o-tolyloxy)phenyl)methanol] | no fit (5 min) no fit (30 min) | 6.19 min | ~0.37 µM (≈ 0.152 µg/mL) | 10 to 100 nM | 18.6 nM | – | – | – | hTRPV3 HAMA IC50 (nM) (30 min) ([1]; 30 min): no fit (5 min) no fit (30 min)
3 | NC(=O)c1cc(C(=O)c2ccccc2)ccc1N1CC[C@@H](Oc2ccc(C(F)(F)F)cn2)C1 [Compound 1-154, (R)-5-benzoyl-2-(3-(5-(trifluoromethyl)pyridin-2-yloxy)pyrrolidin-1-yl)benzamide] | no fit (5 min) | 54.5 min | – | > 1000 nM | 3040 nM | – | – | – | –
4 | Cc1cccnc1O[C@H]1CCN(c2ccc(-c3ccccc3)cc2CO)C1 [Compound 1-131, (S)-(4-(3-(3-methylpyridin-2-yloxy)pyrrolidin-1-yl)biphenyl-3-yl)methanol] | no fit (5 min) | 23.5 min | ~0.62 µM (≈ 0.223 µg/mL) | 100 to 1000 nM | 148 nM | – | – | – | –
5 | NC(=O)c1cc(C(O)c2ccccc2)ccc1N1CC[C@H](Oc2ncccc2Cl)C1 (stereo partly drawn) [Compound 1-137, 2-((S)-3-(3-chloropyridin-2-yloxy)pyrrolidin-1-yl)-5-(hydroxy(phenyl)methyl)benzamide] | no fit (5 min) | 8.72 min | > 17.7 µM | > 1000 nM | 2980 nM | – | – | – | –
6 | NC(=O)c1cc(Cc2ccccc2)ccc1N1CC[C@H](Oc2ccc(C(F)(F)F)cn2)C1 [Compound 1-140, (S)-5-benzyl-2-(3-(5-(trifluoromethyl)pyridin-2-yloxy)pyrrolidin-1-yl)benzamide] | no fit (5 min) | 27.7 min | – | – | – | BLQ | – | – | IC50 ([4]; hTRPV3 Patch P1 Inwd (nM)): 100 to 1000 nM; IC50 [4, 7]: 710 nM
7 | (S)-(2′-chloro-4-(3-(5-(trifluoromethyl)pyridin-2-yloxy)pyrrolidin-1-yl)biphenyl-3-yl)methanol [Compound 1-132] | no fit (5 min) | – | – | 10 to 100 nM | 32 nM | BLQ | – | – | LM T1/2 (min) (rat) ([2]; 1 μM): 54.1 (rat) min
8 | OCc1cc(-c2ccccc2)ccc1N1CC[C@H](Oc2ccc(C(F)(F)F)cn2)C1 [Compound 1-115, (S)-(4-(3-(5-(trifluoromethyl)pyridin-2-yloxy)pyrrolidin-1-yl)biphenyl-3-yl)methanol] | – | 45.8 min | 0.37 µM (≈ 0.153 µg/mL) | 10 to 100 nM | 74.2 nM | – | 10 to 100 nM | 59 nM | IC50 [1, 8]: > 20000 nM and 5860 nM
9 | OCc1cc(-c2ccccc2OC(F)(F)F)ccc1N1CC[C@H](Oc2ccc(C(F)(F)F)cn2)C1 [Compound 1-161, (S)-(2′-(trifluoromethoxy)-4-(3-(5-(trifluoromethyl)pyridin-2-yloxy)pyrrolidin-1-yl)biphenyl-3-yl)methanol] | no fit (5 min) | – | – | 10 to 100 nM | 93.4 nM | BLQ | – | – | –
10 | Cc1ccc(O[C@H]2CCN(c3ccc(-c4ccccc4CN(C)C)cc3CO)C2)nc1 [Compound 1-219, (S)-(2′-((dimethylamino)methyl)-4-(3-(5-methylpyridin-2-yloxy)pyrrolidin-1-yl)biphenyl-3-yl)methanol] | no fit (5 min) no fit (30 min) | – | > 20 µM | – | – | – | – | – | hTRPV3 HAMA IC50 (nM) (30 min) ([1]; 30 min): no fit (5 min) no fit (30 min); IC50 ([4]; hTRPV3 Patch P1 Inwd (nM)): > 1000 nM; IC50 [4, 7]: > 3200 nM
11 | CCc1ccccc1Oc1ccc(N2CC[C@H](Oc3ncccc3Cl)C2)c(CCO)c1 [Compound 1-236, (S)-2-(2-(3-(3-chloropyridin-2-yloxy)pyrrolidin-1-yl)-5-(2-ethylphenoxy)phenyl)ethanol] | no fit | – | – | < 10 nM | 8.27 nM | BLQ | – | – | IC50 [1, 11]: 5900 nM
12 | CCOc1ccccc1-c1ccc(N2CC[C@H](Oc3ccc(C(F)(F)F)cn3)C2)c(CO)c1 [Compound 1-162, (S)-(2′-ethoxy-4-(3-(5-(trifluoromethyl)pyridin-2-yloxy)pyrrolidin-1-yl)biphenyl-3-yl)methanol] | no fit (5 min) | 22.8 min | – | 10 to 100 nM | 101 nM | – | – | – | –
13 | NC(=O)c1cc(Oc2ccccc2)ccc1N1CC[C@H](Oc2ncccc2Cl)C1 [Compound 1-129] | – | 6.42 min | – | – | – | – | – | – | hTRPV3 HAMA IC50 (nM) (5 min) [1]: no fit (5 min); IC50 ([4]; hTRPV3 Patch P1 Inwd (nM)): 100 to 1000 nM
14 | Cc1ccccc1-c1ccc(N2CC[C@H](Oc3ncccc3C)C2)c(CO)n1 [Compound 1-179, (S)-(3-(3-(3-methylpyridin-2-yloxy)pyrrolidin-1-yl)-6-o-tolylpyridin-2-yl)methanol] | no fit (5 min) | – | > 0.73 µM | 100 to 1000 nM | 329 nM | – | 100 to 1000 nM | ~841 nM | –
15 | N#Cc1cc(C(F)(F)F)ccc1N1CC[C@H](Oc2ccc(C(F)(F)F)cn2)C1 [Compound 1-57] | no fit (5 min) | – | – | 100 to 1000 nM | 706 nM | BLQ | 100 to 1000 nM | 219 nM | –
16 | NC(=O)c1cc(-c2ccccc2)ccc1N1CC[C@H](Oc2ccc3cc(Cl)ccc3n2)C1 [Compound 1-67, (S)-4-(3-(6-chloroquinolin-2-yloxy)pyrrolidin-1-yl)biphenyl-3-carboxamide] | no fit (5 min) | – | – | > 1000 nM | 1270 nM | BLQ | 100 to 1000 nM | 585 nM | –
17 | Cc1ccccc1-c1ccc(N2CC[C@H](Oc3ccc(C(F)(F)F)cn3)C2)c(CO)n1 [Compound 1-182, (S)-(6-o-tolyl-3-(3-(5-(trifluoromethyl)pyridin-2-yloxy)pyrrolidin-1-yl)pyridin-2-yl)methanol] | – | – | ~0.8 µM (≈ 0.344 µg/mL) | > 1000 nM | > 3200 nM | – | – | – | IC50 [1, 8]: 19900 nM; IC50 [1, 11]: 4600 nM
18 | NC(=O)c1cc(Oc2ccccc2Cl)ccc1N1CC[C@H](Oc2ncccc2Cl)C1 [Compound 1-181, (S)-5-(2-chlorophenoxy)-2-(3-(3-chloropyridin-2-yloxy)pyrrolidin-1-yl)benzamide] | no fit (5 min) | 8.96 min | – | 100 to 1000 nM | 571 nM | – | 100 to 1000 nM | 834 nM | –
19 | COc1ccccc1-c1ccc(N2CC[C@H](Oc3ccc(C(F)(F)F)cn3)C2)c(CO)n1 [Compound 1-183, (S)-(6-(2-methoxyphenyl)-3-(3-(5-(trifluoromethyl)pyridin-2-yloxy)pyrrolidin-1-yl)pyridin-2-yl)methanol] | no fit (5 min) no fit (30 min) | – | 0.84 µM (≈ 0.374 µg/mL) | – | – | – | > 1000 nM | > 3200 nM | hTRPV3 HAMA IC50 (nM) (30 min) ([1]; 30 min): no fit (5 min) no fit (30 min)
